Experimental findings from patent US12065443B2, “Compounds and pharmaceutical compositions thereof for the treatment of diseases” (priority 2017, dated 2024) are described below.

One assay deals with T1, SIK1 (Homo sapiens, UniProt P57059).
T1 construct: purchased Carna Biosciences 02-131
Nature of the assay: biochemical. As to conditions: 33P radioactive SIK kinase assay, AMARA peptide, 10 μM ATP; read-out: SIK1 IC50. The method in brief: (§1)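 Read-out: ^33P incorporated into AMARA peptide, counted on filter plates, taken as kinase activity. Reactions start on addition of labeled/unlabeled ATP to enzyme plus substrate and end with phosphoric acid. Controls: 1% DMSO (negative) and 10 μM staurosporine (positive), final.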

A further assay addresses T2, SIK2 (Homo sapiens, UniProt Q9H0K1).
T2 construct: purchased ThermoFisher Scientific PV4792
Nature of the assay: biochemical. As to conditions: 33P radioactive SIK kinase assay, AMARA peptide, 10 μM ATP. The method in brief: as §1

The next assay addresses T3, SIK3 (Homo sapiens, UniProt Q9Y2K2).
T3 construct: purchased SignalChem S12-11G-100
Description: biochemical. An outline of the steps: as §1

The subject of assay [1] is LPS-induced TNFα secretion in monocyte-derived macrophages (MdM). Nature of the assay: MdM assay: LPS-triggered TNFα (ELISA). As to conditions: Homo sapiens, Macrophage, LPS-triggered TNFα inhibition. It is filed as cell-based, human. The method in brief: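 Human CD14+ monocytes isolated from buffy-coat PBMCs by magnetic beads, differentiated to macrophages; on day 10 compound preincubated 1 h at 37 °C, then LPS 200 ng/mL added (0.2% DMSO). Supernatant taken after 20 h; TNFα quantified by sandwich ELISA against standard curve.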
On the technique in general: ELISA stands for enzyme-linked immunosorbent assay.

Assay [2] relates to LPS triggered IL-10 secretion in monocyte-derived macrophages (MdM). Description: MdM assay: LPS-triggered IL-10 (ELISA). It is filed as cell-based, human. The settings on record: maximal fold change vs LPS only, median across assays. As for the experimental part:
This assay evaluates illustrative compounds of the invention for their inhibition of LPS-induced TNFα and LPS triggered IL-10 secretion in monocyte-derived macrophages.
PBMCs are isolated from human blood samples (buffycoats). The buffy coat is aseptically transferred into a 50 mL Falcon tube, and diluted 1/2 in PBS. Falcon tubes are filled with 20 mL Lymphoprep™, on top of which 25 mL of the buffy coat is carefully added, tubes are centrifuged for 35 min at 400 g in temperature controlled centrifuge, without brake, at 25° C. PBMCs are aspirated from the white interface layer between sample and Lymphoprep™. PBMCs are washed five times in PBS.
PBMCs are centrifuged at 300×g for 10 min and resuspended at a density of 1.0E07 cells/80 μL Miltenyi buffer (PBS, pH 7.4, 1% FBS, 2 mM EDTA).
Starting from this point of the protocol all steps are performed on ice. 20 μL of CD14+ micro-beads are added per 1.0E07 cells, the tube is mixed and incubated for 15 min in the fridge at 4° C. Cell suspension volume is adjusted to total volume of 100 mL using Miltenyi buffer, mixed gently and subsequently centrifuged for 10 min at 300× g. Supernantant is discarded and cell pellet is resuspended in 12 mL of Miltenyi buffer.
Four LS columns are placed in the MACS Separator (magnet) from Miltenyi Biotec, and are prewet by rinsing with 3 mL of MACS buffer per column. Three mL of cell suspension is added onto the column (max 1*10^8 of labelled cells/column), and columns are subsequently washed 3 times with 3 mL of Miltenyi buffer.
The columns are removed from the magnets, and 5 mL of Miltenyi buffer are added to the column to flush out the CD14+ fraction by pushing the plunger into the column. The flushed fractions are collected in a fresh 50 mL Falcon and volume is adjusted to 30 mL using Miltenyi buffer, cells are centrifuged for 10 min at 300× g. The obtained cell pellet is resuspended in 10 mL RPMI w/o FBS, and cell density is determined using a hematologic analyser (Sysmex XS-500i).
On day 10, MdMs are triggered and compound is added.
A compound dilution plate is made in 100% DMSO by 3-fold dilution of 10 mM stock solution. An intermediate dilution plate (10× final concentration) is made by diluting the compound dilution plate 50-fold in RPMI medium.
Medium is carefully removed from cell plates using multichannel pipette, and replaced by 80 μL fresh medium. 10 μL of the 10× final concentration compound is added to the cells and incubated for 1 hour at 37° C. before addition of trigger. No trigger conditions/trigger conditions are spiked with equal final DMSO concentrations of 0.2% DMSO. 10 μL of 10×LPS (final conc. 200 ng/mL) solution are added to all wells except for the ‘no trigger wells’ where 10 μL medium is added. Supernatant is collected after 2 h (IL-10 determination) and after 20 h (TNFα determination) of LPS triggering.
Plates are washed three times with PBST, where after 100 μL of Strep-HRP conjugate (0.5 μg/mL final concentration diluted in dilution buffer) is added. Plates are incubated in the dark, at 37° C. for 30 min. Plates are washed three times with PBST. […] 100 μL of substrate solution is added to each well and incubated until brilliant blue color develops. The reaction is stopped by adding 50 μL of 1 M H2SO4, after which absorbance is measured at 450 nm on the SpectraMax i3, Molecular Devices.
To quantify these inductions fold changes (FC) compared to ‘LPS only’ are calculated for each concentration tested and the maximal FC is calculated (IL-10 FCmax):
[formula] wherein ABS=Absorbance measured at 450 nm.
The median maximal FC for test compounds across two or more assays is reported (IL-10FCmax median).

T1 sequence (P57059 whole entry): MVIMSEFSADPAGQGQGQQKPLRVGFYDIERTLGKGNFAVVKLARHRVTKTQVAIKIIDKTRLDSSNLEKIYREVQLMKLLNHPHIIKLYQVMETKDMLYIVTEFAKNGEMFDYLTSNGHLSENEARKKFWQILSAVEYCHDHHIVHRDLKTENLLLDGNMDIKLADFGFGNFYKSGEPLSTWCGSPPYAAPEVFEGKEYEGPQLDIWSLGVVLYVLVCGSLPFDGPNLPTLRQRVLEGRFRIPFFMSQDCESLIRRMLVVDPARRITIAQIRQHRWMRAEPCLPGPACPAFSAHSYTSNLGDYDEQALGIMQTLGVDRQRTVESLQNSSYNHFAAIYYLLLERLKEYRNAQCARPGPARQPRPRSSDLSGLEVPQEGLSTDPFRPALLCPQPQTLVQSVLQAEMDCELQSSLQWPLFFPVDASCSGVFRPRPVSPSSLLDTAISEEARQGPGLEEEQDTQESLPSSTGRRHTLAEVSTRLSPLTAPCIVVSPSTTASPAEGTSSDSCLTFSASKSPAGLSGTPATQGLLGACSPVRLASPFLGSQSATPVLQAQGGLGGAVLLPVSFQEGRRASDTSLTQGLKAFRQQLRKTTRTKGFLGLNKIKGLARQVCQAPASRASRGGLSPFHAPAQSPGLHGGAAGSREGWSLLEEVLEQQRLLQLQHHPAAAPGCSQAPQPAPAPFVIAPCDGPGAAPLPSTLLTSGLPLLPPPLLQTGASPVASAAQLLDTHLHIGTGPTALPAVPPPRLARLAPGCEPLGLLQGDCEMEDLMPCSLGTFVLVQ
T2 sequence (Q9H0K1 whole entry): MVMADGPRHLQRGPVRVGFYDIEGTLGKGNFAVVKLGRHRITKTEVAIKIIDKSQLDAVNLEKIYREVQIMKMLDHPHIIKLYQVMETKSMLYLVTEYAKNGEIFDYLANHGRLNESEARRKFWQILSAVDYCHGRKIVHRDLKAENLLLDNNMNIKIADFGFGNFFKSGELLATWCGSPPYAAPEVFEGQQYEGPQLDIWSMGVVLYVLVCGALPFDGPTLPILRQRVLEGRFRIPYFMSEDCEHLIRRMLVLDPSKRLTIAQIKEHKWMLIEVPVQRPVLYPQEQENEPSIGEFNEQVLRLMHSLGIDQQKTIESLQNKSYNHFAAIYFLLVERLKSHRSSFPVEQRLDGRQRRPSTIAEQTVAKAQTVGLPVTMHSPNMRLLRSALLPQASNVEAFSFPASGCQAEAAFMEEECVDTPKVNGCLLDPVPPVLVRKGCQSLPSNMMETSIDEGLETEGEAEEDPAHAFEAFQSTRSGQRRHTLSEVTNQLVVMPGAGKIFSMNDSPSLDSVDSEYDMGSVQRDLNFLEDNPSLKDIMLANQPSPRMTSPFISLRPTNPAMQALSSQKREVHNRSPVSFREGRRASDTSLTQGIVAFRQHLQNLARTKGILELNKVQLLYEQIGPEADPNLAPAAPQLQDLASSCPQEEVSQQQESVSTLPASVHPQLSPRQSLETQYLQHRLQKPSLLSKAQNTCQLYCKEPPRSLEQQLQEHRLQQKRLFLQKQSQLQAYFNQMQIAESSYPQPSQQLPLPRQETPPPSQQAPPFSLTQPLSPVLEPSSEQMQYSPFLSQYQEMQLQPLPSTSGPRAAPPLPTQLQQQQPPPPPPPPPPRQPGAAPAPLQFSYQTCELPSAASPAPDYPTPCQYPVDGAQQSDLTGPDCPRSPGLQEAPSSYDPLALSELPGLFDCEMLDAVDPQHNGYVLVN
T3 sequence (Q9Y2K2 whole entry): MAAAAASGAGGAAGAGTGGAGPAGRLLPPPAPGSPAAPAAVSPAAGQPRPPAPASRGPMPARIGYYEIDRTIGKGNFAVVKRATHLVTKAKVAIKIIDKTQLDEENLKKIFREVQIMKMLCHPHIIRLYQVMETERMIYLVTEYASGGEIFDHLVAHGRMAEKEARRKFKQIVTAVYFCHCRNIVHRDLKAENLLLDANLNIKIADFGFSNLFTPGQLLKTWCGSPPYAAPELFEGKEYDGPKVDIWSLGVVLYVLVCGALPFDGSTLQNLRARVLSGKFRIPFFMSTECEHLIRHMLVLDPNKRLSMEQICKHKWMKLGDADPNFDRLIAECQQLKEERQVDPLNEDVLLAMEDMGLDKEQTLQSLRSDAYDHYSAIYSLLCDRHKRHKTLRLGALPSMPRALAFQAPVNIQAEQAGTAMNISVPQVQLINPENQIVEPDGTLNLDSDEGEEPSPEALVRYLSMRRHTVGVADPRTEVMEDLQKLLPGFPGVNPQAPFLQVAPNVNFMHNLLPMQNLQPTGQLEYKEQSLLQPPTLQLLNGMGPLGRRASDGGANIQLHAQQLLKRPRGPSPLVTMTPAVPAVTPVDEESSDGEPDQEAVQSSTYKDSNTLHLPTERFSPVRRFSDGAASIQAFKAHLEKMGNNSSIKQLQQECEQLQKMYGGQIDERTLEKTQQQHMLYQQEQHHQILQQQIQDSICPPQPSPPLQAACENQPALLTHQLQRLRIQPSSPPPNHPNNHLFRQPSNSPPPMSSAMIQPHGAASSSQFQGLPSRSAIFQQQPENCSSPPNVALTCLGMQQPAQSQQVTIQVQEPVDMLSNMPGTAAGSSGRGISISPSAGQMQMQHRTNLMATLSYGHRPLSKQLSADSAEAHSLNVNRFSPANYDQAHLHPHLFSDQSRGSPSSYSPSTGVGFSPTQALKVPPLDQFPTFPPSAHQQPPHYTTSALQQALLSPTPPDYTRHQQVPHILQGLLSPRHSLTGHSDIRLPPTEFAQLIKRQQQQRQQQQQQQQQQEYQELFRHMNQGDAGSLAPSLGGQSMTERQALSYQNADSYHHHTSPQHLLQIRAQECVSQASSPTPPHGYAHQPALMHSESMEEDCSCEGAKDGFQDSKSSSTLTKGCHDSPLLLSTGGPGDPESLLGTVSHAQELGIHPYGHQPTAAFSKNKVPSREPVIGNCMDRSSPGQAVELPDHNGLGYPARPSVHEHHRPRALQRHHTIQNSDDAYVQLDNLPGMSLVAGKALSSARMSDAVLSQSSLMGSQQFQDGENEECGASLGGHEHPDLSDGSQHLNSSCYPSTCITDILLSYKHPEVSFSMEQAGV

Take `COc1cc(-n2cnc3cc(-c4cnn(C)c4)ccc32)cc(OC)c1C(=O)NC1CC1` [Cpd 86, N-cyclopropyl-2,6-dimethoxy-4-[5-(1-methylpyrazol-4-yl)benzimidazol-1-yl]benzamide]: the results for the IC50 on SIK1, at SIK2 and on SIK3 were 10 to 100 nM, 0.01 to 10 nM and 0.01 to 10 nM, respectively. Also, the EC50 (commonly the midpoint of the concentration-response curve) in assay [1] fell in the range of 0.1 to 100 nM. The “IL-10 FCmax median” value in assay [2] is on record as “++ (>1.5-4.5)”.

As for `COc1cc(-c2cnc3cc(-c4cnn(C)c4)ccn23)cc(C)c1C(=O)NCC(F)(F)F` [Cpd 206, 2-methoxy-6-methyl-4-[7-(1-methylpyrazol-4-yl)imidazo[1,2-a]pyridin-3-yl]-N-(2,2,2-trifluoroethyl)benzamide], the IC50 at SIK1, on SIK2 and on SIK3 was 10 to 100 nM each time. The EC50 in assay [1] is 100 to 1000 nM. In addition, the “IL-10 FCmax median” value in assay [2] is reported as “+++ (>4.5)”.

For the compound `COc1cc(-c2cnc3cc(-c4cnn(CC(=O)O)c4)ccn23)cc(OC)c1C(=O)NCC(F)(F)F` [Cpd 228, 2-[4-[3-[3,5-dimethoxy-4-(2,2,2-trifluoroethyl-carbamoyl)phenyl]imidazo[1,2-a]pyridin-7-yl]pyrazol-1-yl]acetic acid], the IC50 at SIK1, at SIK2 and against SIK3 was 0.01 to 10 nM each time. Besides, the EC50 in assay [1] was over 5000 nM. Besides, in assay [2], the “IL-10 FCmax median” value was “++ (>1.5-4.5)”.

Regarding `CCNC(=O)c1c(OC)cc(-n2cnc3cc(-c4ccc(N5CCOCC5)nc4)ccc32)cc1OC` [compound 3, N-ethyl-2,6-dimethoxy-4-[5-(6-morpholino-3-pyridyl)benzimidazol-1-yl]benzamide], the IC50 on SIK1, at SIK2 and at SIK3 was 10 to 100 nM throughout. For the same compound, the 50% effective concentration (EC50) in assay [1] fell in the range of 100 to 1000 nM. The “IL-10 FCmax median” value in assay [2] is “++ (>1.5-4.5)”.

Take `CCNC(=O)c1c(OC)cc(-n2cnc3cc(-c4cnn(CCN5CCOCC5)c4)ccc32)cc1OC` [compound 4, N-ethyl-2,6-dimethoxy-4-[5-[1-(2-morpholinoethyl)pyrazol-4-yl]benzimidazol-1-yl]benzamide]: the 50% inhibitory concentration (IC50) at SIK1, on SIK2 and on SIK3 was 10 to 100 nM in each case. Besides, in assay [1], the concentration for a half-maximal effect (EC50) fell in the range of 1000 to 5000 nM. Also, the “IL-10 FCmax median” value in assay [2] is given as “++ (>1.5-4.5)”.

`CCNC(=O)c1c(OC)cc(-c2cnn3cc(-c4cnn(CC)c4)cnc23)cc1OC` [compound 9, N-ethyl-4-[6-(1-ethylpyrazol-4-yl)pyrazolo[1,5-a]pyrimidin-3-yl]-2,6-dimethoxy-benzamide]: the IC50 at SIK1, on SIK2 and against SIK3 was 10 to 100 nM in each case. For the same compound, the EC50 in assay [1] was in the range of 100 to 1000 nM. Besides, in assay [2], the “IL-10 FCmax median” value was “++ (>1.5-4.5)”.

For the compound `CCn1cc(-c2ccc3c(c2)ncn3-c2cc(OC)c(C(=O)NCCF)c(OC)c2)cn1` [compound 10, 4-[5-(1-ethylpyrazol-4-yl)benzimidazol-1-yl]-N-(2-fluoroethyl)-2,6-dimethoxy-benzamide], the IC50 – broadly, the concentration at which inhibition is half-maximal – at SIK1 fell in the range of 10 to 100 nM; at SIK2, 0.01 to 10 nM; at SIK3, 0.01 to 10 nM. Besides, the EC50 in assay [1] was in the range of 100 to 1000 nM. In addition, the “IL-10 FCmax median” value in assay [2] is recorded as “++ (>1.5-4.5)”.

In the case of `CCn1cc(-c2ccc3c(c2)ncn3-c2cc(OC)c(C(=O)NCC(F)F)c(OC)c2)cn1` [compound 11, N-(2,2-difluoroethyl)-4-[5-(1-ethylpyrazol-4-yl)benzimidazol-1-yl]-2,6-dimethoxy-benzamide], the figures for the IC50 on SIK1, on SIK2 and against SIK3 were 10 to 100 nM, 0.01 to 10 nM and 0.01 to 10 nM, respectively. Moreover, the EC50 in assay [1] is 100 to 1000 nM. Besides, in assay [2], the “IL-10 FCmax median” value is given as “++ (>1.5-4.5)”.

For the compound `CCn1cc(-c2cnc3c(-c4cc(OC)c(C(=O)NCC(F)(F)F)c(OC)c4)cnn3c2)cn1` [compound 20, 4-[6-(1-ethylpyrazol-4-yl)pyrazolo[1,5-a]pyrimidin-3-yl]-2,6-dimethoxy-N-(2,2,2-trifluoroethyl)benzamide], the half-maximal inhibitory concentration (IC50) on SIK1 was 10 to 100 nM; on SIK2, 0.01 to 10 nM; against SIK3, 10 to 100 nM. This compound returned an EC50 in assay [1] of 100 to 1000 nM. Further, the “IL-10 FCmax median” value in assay [2] is reported as “++ (>1.5-4.5)”.

As for `COc1cc(-c2cnn3cc(-c4cnn(C)c4)cnc23)cc(OC)c1C(=O)NCC(F)F` [compound 24, N-(2,2-difluoroethyl)-2,6-dimethoxy-4-[6-(1-methylpyrazol-4-yl)pyrazolo[1,5-a]pyrimidin-3-yl]benzamide], the values for the half-maximal inhibitory concentration (IC50) on SIK1, at SIK2 and on SIK3 were 10 to 100 nM, 0.01 to 10 nM and 10 to 100 nM, respectively. Also, in assay [1], the EC50 fell in the range of 100 to 1000 nM. The “IL-10 FCmax median” value in assay [2] is recorded as “++ (>1.5-4.5)”.

For `COc1cc(-n2cnc3cc(-c4cnn(CCO)c4)ccc32)cc(OC)c1C(=O)NCC(F)(F)F` [compound 33, 4-[5-[1-(2-hydroxyethyl)pyrazol-4-yl]benzimidazol-1-yl]-2,6-dimethoxy-N-(2,2,2-trifluoroethyl)benzamide], the IC50 at SIK1, at SIK2 and on SIK3 was 0.01 to 10 nM in each case. Moreover, the 50% effective concentration (EC50) in assay [1] is over 5000 nM. Further, in assay [2], the “IL-10 FCmax median” value was “++ (>1.5-4.5)”.

Regarding `COc1cc(-n2cnc3cc(-c4cnn(CC#N)c4)ccc32)cc(OC)c1C(=O)NCC(F)(F)F` [compound 40, 4-[5-[1-(cyanomethyl)pyrazol-4-yl]benzimidazol-1-yl]-2,6-dimethoxy-N-(2,2,2-trifIuoroethyl)benzamide], the IC50 is 10 to 100 nM at SIK1, 0.01 to 10 nM on SIK2 and 0.01 to 10 nM on SIK3. In assay [1], this compound came in with an EC50 of 0.1 to 100 nM. In assay [2], the “IL-10 FCmax median” value is on record as “++ (>1.5-4.5)”.

For the compound `COc1cc(-n2cnc3cc(-c4cnn(CCN5CCOCC5)c4)ccc32)cc(OC)c1C(=O)NCC(F)(F)F` [compound 41, 2,6-dimethoxy-4-[5-[1-(2-morpholinoethyl)pyrazol-4-yl]benzimidazol-1-yl]-N-(2,2,2-trifluoroethyl)benzamide], the figures for the IC50 at SIK1, on SIK2 and at SIK3 were 10 to 100 nM, 0.01 to 10 nM and 0.01 to 10 nM, respectively. The compound also showed an EC50 in assay [1] of 100 to 1000 nM. Further, the “IL-10 FCmax median” value in assay [2] was “++ (>1.5-4.5)”.

Consider `CCn1cc(-c2ccc3c(c2)ncn3-c2cc(OC)c(C(=O)NC3C[C@H]3C)c(OC)c2)cn1` (stereo partly drawn) [compound 49, 4-[5-(1-ethylpyrazol-4-yl)benzimidazol-1-yl]-2,6-dimethoxy-N-[(2R)-2-methylcyclopropyl]benzamide], for which the IC50 at SIK1, on SIK2 and against SIK3 was 10 to 100 nM in each case. In assay [1], this compound came in with an EC50 of over 5000 nM. Besides, the “IL-10 FCmax median” value in assay [2] is on record as “++ (>1.5-4.5)”.
